Data on 30 compounds can be found in US9399636B2, “Substituted dipyridylamines and uses thereof” (Genentech, Inc., priority 2012, dated 2016).

This experiment concerns the target T1, DLK (Homo sapiens, UniProt Q12852).
T1 construct: N-terminally GST-tagged DLK (catalytic domain amino acid 1-520) (Carna Bioscience); GST (N); purchased Carna Bioscience
T1 sequence (Q12852 1-520): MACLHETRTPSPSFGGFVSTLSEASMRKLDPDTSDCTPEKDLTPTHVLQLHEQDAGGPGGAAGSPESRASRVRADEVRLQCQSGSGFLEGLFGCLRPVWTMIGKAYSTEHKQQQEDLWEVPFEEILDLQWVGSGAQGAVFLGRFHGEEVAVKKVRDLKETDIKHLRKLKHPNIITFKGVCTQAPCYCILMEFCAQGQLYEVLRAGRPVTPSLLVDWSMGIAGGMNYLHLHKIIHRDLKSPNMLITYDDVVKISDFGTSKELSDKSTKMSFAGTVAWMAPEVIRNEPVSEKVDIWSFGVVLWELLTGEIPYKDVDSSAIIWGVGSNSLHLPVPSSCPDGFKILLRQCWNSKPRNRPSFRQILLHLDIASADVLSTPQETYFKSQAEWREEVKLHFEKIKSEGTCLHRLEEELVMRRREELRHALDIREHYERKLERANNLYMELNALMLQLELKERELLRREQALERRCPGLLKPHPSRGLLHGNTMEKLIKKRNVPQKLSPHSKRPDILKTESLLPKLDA
Nature of the experiment: DLK TR-FRET assay. Particulars: 5 nM GST-tagged DLK (catalytic domain amino acid 1-520), 40 nM HIS-tagged MKK4 K131M substrate, 30 μM ATP, 60 minutes. The class given is biochemical. The essentials: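 Phosphorylation of HIS-tagged MKK4 K131M (40 nM) by GST-DLK aa 1-520 (5 nM) at 30 μM ATP, pH 7.5, run 60 min at ambient temperature. Compound series started at 20 uM, diluted 1:3. Phospho-MKK4 detected by TR-FRET (Eu cryptate/D2 antibodies, 3 h, EDTA-containing buffer).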

In turn, `N#Cc1ccnc(Nc2cc(C3CCOCC3)cc(N3CC4(COC4)C3)n2)c1` [Example 82, 2-[6-(2-Oxa-6-aza-spiro[3.3]hept-6-yl)-4-(tetrahydro-pyran-4-yl)-pyridin-2-ylamino]-isonicotinonitrile] had an inhibition constant Ki of 0.1 µM.

Turning to `N#Cc1ccnc(Nc2cc(C3CCOCC3)cc(N3CCC4CC43)n2)c1` (stereo not drawn) [Example 83, 2-[6-(2-Aza-bicyclo[3.1.0]hex-2-yl)-4-(tetrahydro-pyran-4-yl)-pyridin-2-ylamino]-isonicotinonitrile], the Ki turned out to be 0.0046 µM.

`N#Cc1ccnc(Nc2cc(C3CCOCC3)cc(N3CC4CC4C3)n2)c1` (stereo not drawn) [Example 84, 2-[6-(3-Aza-bicyclo[3.1.0]hex-3-yl)-4-(tetrahydro-pyran-4-yl)-pyridin-2-ylamino]-isonicotinonitrile] displayed a Ki of 0.0016 µM.

Compound `N#Cc1ccnc(Nc2cc(C3CCOCC3)cc(N3CCC4(CCOC4)C3)n2)c1` (stereo not drawn) [Example 85, 2-[6-(2-Oxa-7-aza-spiro[4.4]non-7-yl)-4-(tetrahydro-pyran-4-yl)-pyridin-2-ylamino]-isonicotinonitrile] yielded a Ki of 0.015 µM.

In turn, `N#Cc1ccnc(Nc2cc(C3CCOCC3)cc(N3CC(F)C3)n2)c1` [Example 86, 2-[6-(3-Fluoro-azetidin-1-yl)-4-(tetrahydro-pyran-4-yl)-pyridin-2-ylamino]-isonicotinonitrile] had a Ki of 0.0119 µM.

The compound `COC1CN(c2cc(C3CCOCC3)cc(Nc3cc(C#N)ccn3)n2)C1` [Example 87, 2-[6-(3-Methoxy-azetidin-1-yl)-4-(tetrahydro-pyran-4-yl)-pyridin-2-ylamino]-isonicotinonitrile] came in with a Ki of 0.051 µM.

With `COC1CCN(c2cc(C3CCN(C4COC4)CC3)cc(Nc3cc(C#N)ccn3)n2)C1` (stereo not drawn) [Example 88, 2-[6-(3-Methoxy-pyrrolidin-1-yl)-1-oxetan-3-yl-1′,2′,3′,4′,5′,6′-hexahydro-[4,4′]bipyridinyl-2-ylamino]-isonicotinonitrile], affinity was put at a Ki of 0.0028 µM.

With `N#Cc1ccnc(Nc2cc(C3CCN(C4COC4)CC3)cc(N3CC(F)(F)C3)n2)c1` [Example 89, 2-[6-(3,3-Difluoro-azetidin-1-yl)-1′-oxetan-3-yl-1′,2′,3′,4′,5′,6′-hexahydro-[4,4′]bipyridinyl-2-ylamino]-isonicotinonitrile], the Ki was 0.008 µM.

The compound `N#Cc1ccnc(Nc2cc(C3CCN(C4COC4)CC3)cc(N3CC4CC3C4)n2)c1` [Example 90, 2-[6-(2-Aza-bicyclo[2.1.1]hex-2-yl)-1′-oxetan-3-yl-1′,2′,3′,4′,5′,6′-hexahydro-[4,4′]bipyridinyl-2-ylamino]-isonicotinonitrile] showed a Ki of 0.0019 µM.

The compound `N#Cc1ccnc(Nc2cc(C3CCN(C4COC4)CC3)cc(N3CC(F)C3)n2)c1` [Example 91, 2-[6-(3-Fluoro-azetidin-1-yl)-1′-oxetan-3-yl-1′,2′,3′,4′,5′,6′-hexahydro-[4,4′]bipyridinyl-2-ylamino]-isonicotinonitrile] showed a Ki of 0.0067 µM.

In the case of `N#Cc1ccnc(Nc2cc(C3CCN(C4COC4)CC3)cc(N3CC4CC4C3)n2)c1` (stereo not drawn) [Example 92, 2-[6-(3-Aza-bicyclo[3.1.0]hex-3-yl)-1′-oxetan-3-yl-1′,2′,3′,4′,5′,6′-hexahydro-[4,4′]bipyridinyl-2-ylamino]-isonicotinonitrile], the inhibition constant (Ki) was determined as 0.0007 µM.

Take `N#Cc1ccnc(Nc2cc(C3CCN(C4COC4)CC3)cc(N3CC4(CCOC4)C3)n2)c1` [Example 93, 2-[6-(6-Oxa-2-aza-spiro[3.4]oct-2-yl)-1′-oxetan-3-yl-1′,2′,3′,4′,5′,6′-hexahydro-[4,4′]bipyridinyl-2-ylamino]-isonicotinonitrile]: the Ki amounted to 0.02 µM.

`N#Cc1ccnc(Nc2cc(C3CCN(C4COC4)CC3)cc(N3CC4(CCC4(F)F)C3)n2)c1` [Example 94, 2-[6-(5,5-Difluoro-2-aza-spiro[3.3]hept-2-yl)-1′-oxetan-3-yl-1′,2′,3′,4′,5′,6′-hexahydro-[4,4′]bipyridinyl-2-ylamino]-isonicotinonitrile]: the inhibitory constant (Ki) stood at 0.0041 µM.

As to `N#Cc1ccnc(Nc2cc(C3CCN(C4COC4)CC3)cc(N3CCC4(CCOC4)C3)n2)c1` (stereo not drawn) [Example 95, 2-[6-(2-Oxa-7-aza-spiro[4.4]non-7-yl)-1′-oxetan-3-yl-1′,2′,3′,4′,5′,6′-hexahydro-[4,4′]bipyridinyl-2-ylamino]-isonicotinonitrile], the Ki worked out at 0.0073 µM.

For the compound `COC1CN(c2cc(C3CCN(C4COC4)CC3)cc(Nc3cc(C#N)ccn3)n2)C1` [Example 96, 2-[6-(3-Methoxy-azetidin-1-yl)-1′-oxetan-3-yl-1′,2′,3′,4′,5′,6′-hexahydro-[4,4′]bipyridinyl-2-ylamino]-isonicotinonitrile], the inhibition constant (Ki) was found to be 0.018 µM.

Compound `N#Cc1ccnc(Nc2cc(C3CCN(C4COC4)CC3)cc(N3CC4CC(F)(F)C4C3)n2)c1` (stereo not drawn) [Example 97, 2-[6-(6,6-Difluoro-3-aza-bicyclo[3.2.0]hept-3-yl)-1′-oxetan-3-yl-1′,2′,3′,4′,5′,6′-hexahydro-[4,4′]bipyridinyl-2-ylamino]-isonicotinonitrile] gave an inhibition constant Ki of 0.0006 µM.

`N#Cc1ccnc(Nc2cc(C3CCN(C4COC4)CC3)cc(N3CC4(COC4)C3)n2)c1` [Example 98, 2-[6-(2-Oxa-6-aza-spiro[3.3]hept-6-yl)-1′-oxetan-3-yl-1′,2′,3′,4′,5′,6′-hexahydro-[4,4′]bipyridinyl-2-ylamino]-isonicotinonitrile] had an inhibitory constant (Ki) of 0.0422 µM.

For the compound `N#Cc1ccnc(Nc2cc(C3CCN(C4COC4)CC3)cc(N3CCC4CC43)n2)c1` (stereo not drawn) [Example 99, 2-[6-(2-Aza-bicyclo[3.1.0]hex-2-yl)-1′-oxetan-3-yl-1′,2′,3′,4′,5′,6′-hexahydro-[4,4′]bipyridinyl-2-ylamino]-isonicotinonitrile], the affinity, expressed as Ki, was 0.0009 µM.

Compound `N#Cc1ccnc(Nc2cc(C3CCOCC3)cc(N3CC4CC(F)(F)C4C3)n2)c1` (stereo not drawn) [Example 100, 2-[6-(6,6-Difluoro-3-aza-bicyclo[3.2.0]hept-3-yl)-4-(tetrahydro-pyran-4-yl)-pyridin-2-ylamino]-isonicotinonitrile] returned a Ki of 0.011 µM.

For the compound `COC1CCN(c2cc(C3CCOCC3)cc(Nc3cc(C#N)ccn3)n2)C1` (stereo not drawn) [Example 101, 2-[6-(3-Methoxy-pyrrolidin-1-yl)-4-(tetrahydro-pyran-4-yl)-pyridin-2-ylamino]-isonicotinonitrile], the Ki is 0.038 µM.

The compound `N#Cc1ccnc(Nc2cc(C3CCOCC3)cc(N3CC4(CCOC4)C3)n2)c1` [Example 102, 2-[6-(6-Oxa-2-aza-spiro[3.4]oct-2-yl)-4-(tetrahydro-pyran-4-yl)-pyridin-2-ylamino]-isonicotinonitrile] registered an inhibition constant (Ki) of 0.088 µM.

`N#Cc1ccnc(Nc2cc(C3CCOCC3)cc(N3CC4(CCC4(F)F)C3)n2)c1` [Example 103, 2-[6-(5,5-Difluoro-2-aza-spiro[3.3]hept-2-yl)-4-(tetrahydro-pyran-4-yl)-pyridin-2-ylamino]-isonicotinonitrile] had a Ki of 0.016 µM.

For `N#Cc1ccnc(Nc2cc(C3CCOCC3)cc(N3CC(F)(F)C3)n2)c1` [Example 104, 2-[6-(3,3-Difluoro-azetidin-1-yl)-4-(tetrahydro-pyran-4-yl)-pyridin-2-ylamino]-isonicotinonitrile], affinity was put at a Ki of 0.0126 µM.

For the compound `N#Cc1ccnc(Nc2cc(C3CCN(C4COC4)CC3)cc(N3CCC3)n2)c1` [Example 105, 2-(6-Azetidin-1-yl-1′-oxetan-3-yl-1′,2′,3′,4′,5′,6′-hexahydro-[4,4′]bipyridinyl-2-ylamino)-isonicotinonitrile], the inhibition constant Ki worked out at 0.007 µM.

In turn, `N#Cc1ccnc(Nc2cc(C3CCN(C4COC4)CC3)cc(Cl)n2)c1` [Example 106, 2-(6-Chloro-1′-oxetan-3-yl-1′,2′,3′,4′,5′,6′-hexahydro-[4,4′]bipyridinyl-2-ylamino)-isonicotinonitrile] registered an inhibition constant Ki of 0.01 µM.

In turn, `Cc1cc(C2CCN(C(=O)C(F)(F)F)CC2)cc(Nc2cc(C#N)ccn2)n1` [Example 107, 2-[6-Methyl-1′-(2,2,2-trifluoro-acetyl)-1′,2′,3′,4′,5′,6′-hexahydro-[4,4′]bipyridinyl-2-ylamino]-isonicotinonitrile] returned a Ki of 0.12 µM.

In the case of `CC(=O)N1CCC(c2cc(C)nc(Nc3cc(C#N)ccn3)c2)CC1` [Example 108, 2-(1′-Acetyl-6-methyl-1′,2′,3′,4′,5′,6′-hexahydro[4,4′]bipyridinyl-2-ylamino)-isonicotinonitrile], the affinity, expressed as Ki, was 0.093 µM.

In the case of `Cc1cc(C2CCN(S(C)(=O)=O)CC2)cc(Nc2cc(C#N)ccn2)n1` [Example 109, 2-(1′-Methanesulfonyl-6-methyl-1′,2′,3′,4′,5′,6′-hexahydro-[4,4′]bipyridinyl-2-ylamino)-isonicotinonitrile], the Ki was 0.14 µM.

`Cc1cc(C2CCN(C3COC3)CC2)cc(Nc2cc(C#N)ccn2)n1` [Example 110, 2-(6-Methyl-1′-oxetan-3-yl-1′,2′,3′,4′,5′,6′-hexahydro-[4,4′]bipyridinyl-2-ylamino)-isonicotinonitrile] showed an inhibition constant Ki of 0.093 µM.

As to `Cc1cc(C2CCNCC2)cc(Nc2cc(C#N)ccn2)n1` [Example 111, 2-(6-Methyl-1′,2′,3′,4′,5′,6′-hexahydro-[4,4′]bipyridinyl-2-ylamino)-isonicotinonitrile], the inhibition constant Ki was 0.089 µM.

For orientation: Ki means a measure of affinity in units of concentration, obtained from inhibition or displacement. A high value points to lower affinity.
